According to patent publication US9243009B2, “Phosphate ester compound of hydroxy acid substituted phenol ester, preparation method and medical use thereof” (West China Hospital, Sichuan University, priority 2010, dated 2016):

Key:
[1] = in words, prior-art prodrug of WO200213810; cited from earlier work
[2] = in words, prior-art prodrug of WO200213810; cited from earlier work; remark: listed apart in the source
Kunming mice = details: tail vein injection; for Median effective dose (ED50): disappearance of FRR; for disappearance time of FRR (onset time) / recovery time (recovery of FRR): during the determination of ED50; for anesthetic effect: in words
Description: Median effective doses (ED50) of propofol hydroxybutyrate phosphate disodium salt and Diprivan™ were determined by the up-and-down method. In the test, the mice were injected with the drugs through the tail veins, with the disappearance of the forepaw righting reflex (FRR) of the mice as a judgment index of the end point of anesthesia; the recovery of FRR of the mice as an index of recovery from anesthesia.
In the test, the mice were injected with the drugs through the tail veins, with the disappearance of the forepaw righting reflex (FRR) of the mice as a judgment index of the end point of anesthesia; the recovery of FRR of the mice as an index of recovery from anesthesia.

Molecule | water solubility [1] | stability in aqueous solution [2] | Median effective dose (ED50) (Kunming mice) | disappearance time of FRR (onset time) (Kunming mice) | recovery time (recovery of FRR) (Kunming mice) | anesthetic effect (Kunming mice)
CC(C)c1cccc(C(C)C)c1OC(=O)CCC(=O)[O-].[Na+] [propofol succinic acid monoester sodium salt] | high water-solubility | unstable in aqueous solution | – | – | – | –
propofol w-hydroxybutyrate phosphate disodium salt | – | – | 130 mg/kg | 150.6 ± 42.1 s | 480.6 ± 124.3 s | definite and reversible anesthetic effect
propofol w-hydroxyvalerate phosphate disodium salt | – | – | 152 mg/kg | 180.8 ± 45.6 s | 500.1 ± 114.6 s | definite and reversible anesthetic effect
